Data published in patent publication US8486931B2, “Substituted oxindole compounds” (Abbott GmbH & Co. KG, priority 2007, dated 2013).

molecular target: T1, human vasopressin V1b receptor (Homo sapiens, UniProt P47901); experiment: Vasopressin V1b receptor binding assay; details: membranes from CHO-K1 cells with stably expressed human V1b receptors, 1.5 nM 3H-AVP displacement; with more than one stereogenic center: the diastereomer with stronger affinity
T1 construct: expressed in transfected cells; host or cells: CHO-K1 (cell line hV1b-3H2_CHO), membrane preparation
T1 sequence (P47901 1-424): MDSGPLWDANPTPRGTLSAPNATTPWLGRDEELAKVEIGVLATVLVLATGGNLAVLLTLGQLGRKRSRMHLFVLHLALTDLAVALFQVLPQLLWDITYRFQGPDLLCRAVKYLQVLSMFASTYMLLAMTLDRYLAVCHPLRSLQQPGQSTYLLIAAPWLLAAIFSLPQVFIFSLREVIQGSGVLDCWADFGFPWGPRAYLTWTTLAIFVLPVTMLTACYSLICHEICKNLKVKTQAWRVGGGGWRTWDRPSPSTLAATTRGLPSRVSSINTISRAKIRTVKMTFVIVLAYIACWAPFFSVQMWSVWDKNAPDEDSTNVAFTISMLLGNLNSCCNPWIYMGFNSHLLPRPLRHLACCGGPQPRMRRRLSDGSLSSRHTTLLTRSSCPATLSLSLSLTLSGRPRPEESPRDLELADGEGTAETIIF
In short: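 Membranes bearing human V1b receptor incubated 60 min at room temperature in 50 mM Tris, 10 mM MgCl2, 0.1% BSA, pH 7.4, 2% DMSO, triplicate.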

Ki [nM] | Compound
10 to 50 | CCOc1ccccc1C1(N2CCN(c3ccncc3)C(C)C2)C(=O)N(S(=O)(=O)c2cccc3cccnc23)c2ccc(C#N)cc21 (racemic) [Example 17, (±)-5-Cyano-3-(2-ethoxyphenyl)-3-(3-methyl-4-pyridin-4-ylpiperazin-1-yl)-1-(quinoline-8-sulfonyl)-2,3-dihydro-1H-indol-2-one]
< 10 | CCOc1c(OC)cccc1C1(N2CCN(c3ccnc(C(C)C)c3)CC2)C(=O)N(S(=O)(=O)c2ccc(OC)cn2)c2ccc(C#N)cc21 (racemic) [Example 173, (±)-5-Cyano-3-(2-ethoxy-3-methoxy-phenyl)-3-[4-(2-isopropyl-pyridin-4-yl)-piperazin-1-yl]-1-(5-methoxy-pyridine-2-sulfonyl)-2,3-dihydro-1H-indol-2-one]
< 10 | CCOc1ccc(C)cc1C1(N2CCN(c3ccncc3)CC2)C(=O)N(S(=O)(=O)c2ccc(OC)cn2)c2ccc(C#N)cc21 (racemic) [Example 169, (±)-5-Cyano-3-(2-ethoxy-5-methyl-phenyl)-1-(5-methoxy-pyridine-2-sulfonyl)-3-(4-pyridin-4-yl-piperazin-1-yl)-2,3-dihydro-1H-indol-2-one]
< 10 | CCOc1cc(OC)ccc1C1(N2CCC(N3CCNCC3)CC2)C(=O)N(S(=O)(=O)c2ccc(OC)cn2)c2ccc(C#N)cc21 (single isomer, unassigned; (+)) [Example 142, (+)-5-Cyano-3-(2-ethoxy-4-methoxy-phenyl)-1-(5-methoxy-pyridine-2-sulfonyl)-3-(4-piperazin-1-yl-piperidin-1-yl)-2,3-dihydro-1H-indol-2-one]
10 to 50 | CCOc1ccc(OC)cc1C1(N2CCN(c3ccnc(CC)c3)CC2)C(=O)N(S(=O)(=O)c2ccc(OC)c3cccnc23)c2ccc(C#N)cc21 (racemic) [Example 72, (±)-5-Cyano-3-(2-ethoxy-5-methoxyphenyl)-3-[4-(2-ethylpyridin-4-yl)piperazin-1-yl]-1-(5-methoxyquinoline-8-sulfonyl)-2,3-dihydro-1H-indol-2-one]
< 10 | CCOc1ccc(OC)cc1C1(N2CCN(c3ccnc(C)c3)CC2)C(=O)N(S(=O)(=O)c2ccc(OC)c3cccnc23)c2ccc(C#N)cc21 (racemic) [Example 33, (±)-5-Cyano-3-(2-ethoxy-5-methoxyphenyl)-1-(5-methoxyquinoline-8-sulfonyl)-3-[4-(2-methylpyridin-4-yl)piperazin-1-yl]-2,3-dihydro-1H-indol-2-one]
< 10 | CCOc1ccc(OC)cc1C1(N2CCN(c3ccnc(CC)c3)CC2)C(=O)N(S(=O)(=O)c2ccc(OC)cn2)c2ccc(C#N)cc21 (racemic) [Example 146, (±)-5-Cyano-3-(2-ethoxy-5-methoxy-phenyl)-3-[4-(2-ethyl-pyridin-4-yl)-piperazin-1-yl]-1-(5-methoxy-pyridine-2-sulfonyl)-2,3-dihydro-1H-indol-2-one]
10 to 50 | O=C1N(S(=O)(=O)c2cccc3cccnc23)c2ccc(Cl)cc2C1(c1ccccn1)N1CCN(c2ccncc2)CC1 (racemic) [Example 8, (±)-5-Chloro-3-pyridin-2-yl-3-(4-pyridin-4-ylpiperazin-1-yl)-1-(quinoline-8-sulfonyl)-1,3-dihydroindol-2-one]
10 to 50 | CCOc1cc(OC)ccc1C1(N2CCN(c3ccncc3)CC2)C(=O)N(S(=O)(=O)c2cccc3cccnc23)c2ccc(C#N)cc21 (racemic) [Example 157, (±)-5-Cyano-3-(2-ethoxy-4-methoxy-phenyl)-3-(4-pyridin-4-yl-piperazin-1-yl)-1-(quinoline-8-sulfonyl)-2,3-dihydro-1H-indol-2-one]
< 10 | CCOc1ccc(CC)cc1C1(N2CCN(c3ccnc(C(C)C)c3)CC2)C(=O)N(S(=O)(=O)c2ccc(OC)cn2)c2ccc(C#N)cc21 (racemic) [Example 166, (±)-5-Cyano-3-(2-ethoxy-5-ethyl-phenyl)-3-[4-(2-isopropyl-pyridin-4-yl)-piperazin-1-yl]-1-(5-methoxy-pyridine-2-sulfonyl)-2,3-dihydro-1H-indol-2-one]
